Patent US9649306B2, “Treatment of diseases through administration of N-[5-(3,5-difluoro-benzyl)-1H-indazol-3-yl]-4-(4-methyl-piperazin-1-yl)-2-(tetrahydro-pyran-4-ylamino)-benzamide” (NERVIANO MEDICAL SCIENCES S.R.L., priority 2012, dated 2017)
“Also recorded” adds a separate entry of the source.

Test: Hygroscopicity test by Dynamic Vapour Sorption (DVS 1000, SMS)
Format: physicochemical
Settings: for hygroscopicity (in words): DVS, 0-90% RH at 25° C.
Excerpt: The observed water uptake was investigated by submitting a sample of such substances to a hygroscopicity test by means of a DVS 1000 (SMS). The apparatus is a “controlled atmosphere microbalance” where the weighed sample is exposed to programmed variations of the relative humidity (RH) at a constant and controlled temperature. The measured parameters (weight, time and RH), reported in Excel worksheets, allow obtaining hygroscopicity curves over the tested RH range. For example, sorption/desorption cycles between 0% and 90% RH can be performed at controlled temperature of 25° C. Progressive variations of RH can be, for example, of 10% and 3% and are operated by the software at the equilibration of the sample weight. This condition can be defined at a constant rate of percent weight variation such as, for example, 0.005%/min. FIG. 6 reports the DVS profiles of the amorphous form, crystalline form 1 and crystalline form 2 of the compound of formula (I). Relative Humidity (RH, %) values are reported on the x-axis while Change in Mass (%) is reported on the y axis. The curves are related to the sorption step between 0% RH and 90% RH at 25° C.

[1] = DVS sorption step, 25° C./90% RH

Compound | water uptake (DVS at 25° C., from RH values lower than 30% RH) | water uptake [1] | hygroscopicity (in words)
CN1CCN(c2ccc(C(=O)Nc3n[nH]c4ccc(Cc5cc(F)cc(F)c5)cc34)c(NC3CCOCC3)c2)CC1 [amorphous form, N-[5-(3,5-Difluoro-benzyl)-1H-indazol-3-yl]-4-(4-methyl-piperazin-1-yl)-2-(tetrahydro-pyran-4-ylamino)-benzamide] | greater than 1% | 2.5% | higher hygroscopicity than the crystalline forms 1 and 2; also recorded: hygroscopic solid
CN1CCN(c2ccc(C(=O)Nc3n[nH]c4ccc(Cc5cc(F)cc(F)c5)cc34)c(NC3CCOCC3)c2)CC1 [crystalline form 1, N-[5-(3,5-Difluoro-benzyl)-1H-indazol-3-yl]-4-(4-methyl-piperazin-1-yl)-2-(tetrahydro-pyran-4-ylamino)-benzamide] |  | 0.6% | low hygroscopicity
CN1CCN(c2ccc(C(=O)Nc3n[nH]c4ccc(Cc5cc(F)cc(F)c5)cc34)c(NC3CCOCC3)c2)CC1 [crystalline form 2, N-[5-(3,5-Difluoro-benzyl)-1H-indazol-3-yl]-4-(4-methyl-piperazin-1-yl)-2-(tetrahydro-pyran-4-ylamino)-benzamide] |  | 0.2% | low hygroscopicity
